Residues, ends and D or L forms follow the SMILES beside them. No end group written: not given here. *: point of attachment. FITC = O=C1OC2(c3ccc(O)cc3Oc3cc(O)ccc32)c2ccc(NC(=S)*)cc21
Assays:
SKOV3 cells [1] = test: Cell internalization by confocal microscopy, SKOV3 cells; type: cell-based, human; settings: FITC conjugated peptide 200 μg/mL, 4 hours at 37 °C
Description: To visualize internalization of synthesized peptide C7 into cells, SKOV3 or HepG2 cells were seeded in 24 well plates (10^5 cells/well) containing coverslips and incubated for 24 hours in RPMI 1640 medium with 10% FBS. FITC conjugated peptide C7 or PB-TUP[24] (VHWDFRQWWQPS) (200 μg/mL) was incubated with the cells for 4 hours at 37 °C. After incubation, the cells were washed once with PBS and fixed in 4% paraformaldehyde for 10 min. Cells were then washed three times with PBS and stained with DAPI for 20 min at room temperature. Internalized fluorescent signals were imaged with a Zeiss LSM800 confocal microscope.

SKOV3 xenograft tumor = test: Tumor targeting of FITC conjugated synthetic peptide by fluorescence imaging; type: in vivo, nude mouse; settings: 200 μL of 10 mg/mL in PBS i.v., 2 h circulation, liver, lung, kidney, heart, ovary
Description: FITC conjugated peptide C7 was chemically synthesized by GL Biochem (Shanghai, China) and purified by high-performance liquid chromatography with more than 95% purity and confirmed by mass spectrometry. The FITC conjugated peptide was evaluated in tumor bearing mice for its tumor targeting capability. The peptide was dissolved in PBS at a concentration of 10 mg/mL and 200 μL was injected intravenously into a tumor bearing nude mouse. After 2 h circulation, tumor and other organ tissues (liver, lung, kidney, heart, and ovary) were harvested and analyzed using Carestream IS4000 fluorescence imaging system.

SKOV3 cells [2] = test: Cell-based ELISA of phage clones on SKOV3 cells; design: species or system human; settings: FRα positive cells, fixed; 10^10 phages per well, 37 °C 2 h, HRP anti-M13
From the text: (§1) Phage clones with high ELISA value were further tested by cell-based ELISA. SKOV3 (human epithelial ovarian cancer cell) is a FRα expressing cell line and was used to evaluate the binding of selected phage clones to natural FRα protein on cell surface. HEPG2 (Human Liver Carcinoma Cell) without FRα expressing was used as a negative control. Both cell lines were purchased from Shanghai Cell Biology Institutes (Academia Sinica, Shanghai, China) and maintained in RPMI 1640 Medium with 10% fetal bovine serum and antibiotics. The presence or absence of FRα expression of the two cell lines were confirmed by flow cytometry described in 2.4. The cells were cultured in 96-well plate to 80% confluence and fixed with 4% paraformaldehyde. After blocking with 3% BSA for 2 h, 10^10 individual phages were added to each well and incubated at 37 °C for 2 h. Then the plate was washed with PBST for three times and cell-bound phage was detected with HRP-conjugated anti-M13 IgG (1:10000) as described in phage ELISA.

HepG2 cells = test: Cell-based ELISA of phage clones on HepG2 cells; design: species or system human; settings: FRα negative cells, fixed; 10^10 phages per well, 37 °C 2 h, HRP anti-M13
From the text: as §1

SKOV3 cells [3] = test: Flow cytometry of phage clone binding to SKOV3 cells; type: cell-based, human; settings: 4 °C 1 h, mouse anti-M13 and FITC goat anti-mouse antibody
Description: SKOV3 cells were collected and suspended in 2% FCS-PBS medium at 1 × 10^6 cells/mL. Purified phage clones were incubated individually with the cells at 4 °C for 1 h. The cells were washed twice with 2% FCS-PBS by 5 min centrifugation at 300 g. Mouse anti-M13 antibody was diluted with 2% FCS-PBS (1:400) and incubated with cells for 30 min at 4 °C. After washing, the cells were stained for 30 min at 4 °C with FITC conjugated goat anti-mouse antibody (Fcmacs, Inc., Nanjing). Cells were analyzed as described above.

SKOV3 implanted tumor = test: In vivo homing of phage clones in SKOV3 xenografts; design: species or system Balb/c nude mice; settings: 2 × 10^11 phages i.v., circulated 15 min, phage titration per gram of tissue, n = 3
Description: Female Balb/c nude mice aged 6–8 weeks were purchased from the Yangzhou University Animal Center. All the animal studies were performed in compliance with the National Institutes of Health Guide for the Care and Use of Laboratory Animals and approved by IACUC (Institutional Animal Care and Use Committee of China Pharmaceutical University). The authors confirm that experiments involving laboratory animals adhered to the ethical standards of National Institutes of Health Guide and China Pharmaceutical University. The laboratory animals were used under the experimental animal production license 2121922. All animals were housed in a controlled environment (25 °C; 12 h light-dark cycle), with water and food provided freely. 2 × 10^6 SKOV3 cells were subcutaneously injected into the left flank of mice to generate epithelial ovarian cancer xenografts. 2 × 10^11 individual purified phage clones were injected intravenously and circulated for 15 min. After anesthetized with 10 mg/kg […] (5% w/v), the mice were perfused through the heart. Then, the tumor and main organs (liver, lung, kidney, heart and ovary) were harvested, weighed and homogenated. The homogenated tissues were washed, and lysed with 1% NP40. Bound phages were recovered by elution and titrated as described. The distribution of phages was calculated as phages per gram.

[4] = target: T1, Native human folate receptor alpha (FRα) on SKOV3 cells (human (endogenous in SKOV3), UniProt P15328 25-234); test: flow cytometry on cells; purified phage clones incubated with SKOV3 cells (1 × 10^6 cells/mL, 2% FCS-PBS) at 4 °C for 1 h; mouse anti-M13 antibody and FITC goat anti-mouse antibody; M13KE as negative control; settings: one partner purified
T1 construct: folate receptor alpha, endogenous on the surface of SKOV3 human epithelial ovarian cancer cells; also called natural FRα protein on cell surface; source: endogenous, on SKOV3 cells
T1 sequence (P15328 25-234): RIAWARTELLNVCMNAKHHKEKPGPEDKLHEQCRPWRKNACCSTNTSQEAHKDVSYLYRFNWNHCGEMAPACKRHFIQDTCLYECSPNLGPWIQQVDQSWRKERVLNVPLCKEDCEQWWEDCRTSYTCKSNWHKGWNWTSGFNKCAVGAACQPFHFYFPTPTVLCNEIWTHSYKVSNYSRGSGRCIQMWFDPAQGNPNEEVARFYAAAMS

[5] = target: T2, Recombinant human folate receptor alpha (FRα) (human, UniProt P15328 25-234); test: MST; serial dilutions of FITC conjugated C7 in PBS pH 7.4 mixed with purified FRα protein (1 μg/mL), 5 min at room temperature; Monolith NT.115, standard capillaries; KD from the Hill formula; settings: both partners purified
T2 construct: folate receptor alpha, human; also called recombinant folate receptor α; purified FRα protein; source: E. coli system, purified with a Ni-column
T2 sequence (P15328 25-234): as above

CSCC[C@H](NC(=S)Nc1ccc2c(c1)C(=O)OC21c2ccc(O)cc2Oc2cc(O)ccc21)C(=O)N[C@@H](Cc1c[nH]cn1)C(=O)N[C@H](C(=O)N[C@@H](C)C(=O)N1CCC[C@H]1C(=O)NCC(=O)N[C@@H](Cc1c[nH]c2ccccc12)C(=O)NCC(=O)N[C@@H](Cc1ccc(O)cc1)C(=O)N[C@@H](CCCNC(=N)N)C(=O)N[C@@H](CC(C)C)C(=O)N[C@@H](CO)C(=O)O)[C@@H](C)O [C7, Met-His-Thr-Ala-Pro-Gly-Trp-Gly-Tyr-Arg-Leu-Ser] ({FITC}-MHTAPGWGYRLS-OH; N-terminus and C-terminus assumed)
internalization into SKOV3 cells (SKOV3 cells [1]): can be internalized
fluorescence signal in the tumor compared with other organs (SKOV3 xenograft tumor): significantly stronger compared to that in other organs except liver and kidney

GALLPSMNKGHW [phage clone B8, phage clone displaying Gly-Ala-Leu-Leu-Pro-Ser-Met-Asn-Lys-Gly-His-Trp]
binding to SKOV3 cells in cell-based ELISA (SKOV3 cells [2]): highest binding
binding to HepG2 cells in cell-based ELISA (HepG2 cells): relatively low binding

MHTAPGWGYRLS [phage clone C7, phage clone from Ph.D.-12 library displaying the C7 dodecapeptide]
specific binding to SKOV3 cells (FITC+ cells) (SKOV3 cells [3]): 51.2%
binding to SKOV3 cells in cell-based ELISA (SKOV3 cells [2]): highest binding
binding to HepG2 cells in cell-based ELISA (HepG2 cells): relatively low binding
phage enrichment in tumor tissue relative to M13KE phage in tumor (SKOV3 implanted tumor): 49 fold
phage titer in tumor relative to normal ovary (SKOV3 implanted tumor): 190 fold

MNPYPRTPWPHV [phage clone G12, phage clone displaying Met-Asn-Pro-Tyr-Pro-Arg-Thr-Pro-Trp-Pro-His-Val]
specific binding to SKOV3 cells (FITC+ cells) (SKOV3 cells [3]): 41.8%
binding to SKOV3 cells in cell-based ELISA (SKOV3 cells [2]): highest binding
binding to HepG2 cells in cell-based ELISA (HepG2 cells): relatively low binding

YTNPYYSSHTRN [phage clone G8, phage clone displaying Tyr-Thr-Asn-Pro-Tyr-Tyr-Ser-Ser-His-Thr-Arg-Asn]
specific binding to SKOV3 cells (FITC+ cells) (SKOV3 cells [3]): 36.0%
binding to SKOV3 cells in cell-based ELISA (SKOV3 cells [2]): highest binding
binding to HepG2 cells in cell-based ELISA (HepG2 cells): relatively low binding

B1: Phage clone B8/H1/G4 (peptide)
peptide: GALLPSMNKGHW
notes: dodecapeptide selected by phage display; printed in three-letter code; source: M13 phage clone from the Ph.D.-12 library, amplified in E. coli ER2738; purified phage for flow cytometry
percent specific binding to SKOV3 cells [4]: 31.8%

B2: FITC conjugated peptide C7 (peptide)
peptide: {FITC}-MHTAPGWGYRLS
notes: dodecapeptide of phage clone C7, chemically synthesized; printed in three-letter code; also called C7 peptide; synthesized peptide C7; source: synthetic peptide (GL Biochem, Shanghai; HPLC, more than 95% purity)
Kd [5]: 300 nM

B3: Phage clone C7 (peptide)
peptide: MHTAPGWGYRLS
notes: dodecapeptide selected by phage display; printed in three-letter code; the synthetic FITC peptide is m18; also called C7 phage clone; source: M13 phage clone from the Ph.D.-12 library, amplified in E. coli ER2738; purified phage for flow cytometry
percent specific binding to SKOV3 cells [4]: 51.2%

B4: Phage clone G8 (peptide)
peptide: YTNPYYSSHTRN
notes: as for B1
percent specific binding to SKOV3 cells [4]: 36%

B5: Phage clone G12 (peptide)
peptide: MNPYPRTPWPHV
notes: as for B1
percent specific binding to SKOV3 cells [4]: 41.8%

— PMC5976665, “Identification of a peptide for folate receptor alpha by phage display and its tumor targeting activity in ovary cancer xenograft” (Scientific Reports, 2018)
